{"source": "patent US11427861B2", "about": "“Methods for identifying and modulating co-occurant cellular phenotypes” (MASSACHUSETTS INSTITUTE OF TECHNOLOGY, priority 2016, dated 2022)", "test_system": "dendritic cells", "experiment": "Induction of the functional dendritic cell subset by immunomodulators", "type": "cell-based, human", "conditions": "dendritic cells of normal donors; TLR3 ligand as immunomodulator", "data": [{"substance": "poly I:C", "values": [{"measurement": "population of the functional subset of dendritic cells (CD64 and PD-L1 surface expression)", "value": "induced a larger population of the functional subset of dendritic cells"}]}]}
